Measured values reported in patent US20250002487A1, “HETEROCYCLIC COMPOUNDS AND USES THEREOF” (Ventus Therapeutics U.S., Inc., priority 2021, published 2025).

Target: human-cGAS (h-cGAS) (Homo sapiens, UniProt Q8N884)
Assay: hcGAS Kinase-Glo Assay
Type: biochemical
Conditions: 40 nM h-cGAS, 100 μM ATP, 100 μM GTP, 25 nM dsDNA, 3 h incubation, read-out: hcGAS potency IC50
Protocol: In some embodiments, the compounds of the instant disclosure may be tested for their human-cGAS (h-cGAS) inhibition activity using the methodology reported in Lama et al., “Development of human cGAS-specific small molecule inhibitors for repression of double stranded DNA (dsDNA)-triggered interferon expression”, Nature Communications 10, Article number: 2261 (2019), incorporated herein by reference. hcGAS Kinase-Glo Assay Compounds were tested for their human-cGAS (h-cGAS) inhibition activity using the methodology reported in Lama et al., “Development of human cGAS-specific small molecule inhibitors for repression of double stranded DNA (dsDNA)-triggered interferon expression”, Nature Communications 10. Article number: 2261 (2019), which is herein incorporated by reference in its entirety, with slight changes to some conditions as shown in Table B. The results of the assays, expressed in IC50 ranges are reported in Table C with the following designations: A represents an IC50 value <0.1 μM; B represents an IC50 value ≥0.1 μM and <0.5 μM; C represents an IC50 value ≥0.5 μM and <1.0 μM; D represents an IC50 value ≥1.0 μM. [table]

Sequence of human-cGAS (h-cGAS) (Q8N884 whole entry): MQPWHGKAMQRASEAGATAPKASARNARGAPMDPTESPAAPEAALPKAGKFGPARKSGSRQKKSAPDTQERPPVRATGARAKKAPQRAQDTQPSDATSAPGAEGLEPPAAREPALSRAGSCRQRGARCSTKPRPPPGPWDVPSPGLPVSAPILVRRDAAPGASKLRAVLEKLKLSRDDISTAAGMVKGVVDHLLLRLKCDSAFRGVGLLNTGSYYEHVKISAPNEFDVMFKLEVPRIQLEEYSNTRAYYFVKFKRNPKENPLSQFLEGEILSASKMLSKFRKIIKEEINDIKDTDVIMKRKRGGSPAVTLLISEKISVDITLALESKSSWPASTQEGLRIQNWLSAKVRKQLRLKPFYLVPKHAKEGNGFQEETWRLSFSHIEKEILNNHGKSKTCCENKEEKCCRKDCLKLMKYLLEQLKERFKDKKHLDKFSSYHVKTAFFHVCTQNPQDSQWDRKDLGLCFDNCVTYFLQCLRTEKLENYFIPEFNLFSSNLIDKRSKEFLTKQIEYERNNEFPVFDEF

Compound	IC50
CSc1nnc(NC(=O)c2onc3ccc(CN4CC[C@@H](O)[C@H](O)C4)cc23)s1 (racemic) [rac-183, 5-((3,4-rac-trans-dihydroxypiperidin-1-yl)methyl)-N-(5-(methylthio)-1,3,4-thiadiazol-2-yl)benzo[c]isoxazole-3-carboxamide]	≥ 1000 nM
CSc1nnc(NC(=O)c2nnc(N3CCCC[C@@H]3c3ccccc3)o2)s1 (single isomer, unassigned) [Compound 121*]	500 to 1000 nM
CSc1nnc(NC(=O)c2nnc(N3CCCC[C@H]3c3ccccc3)o2)s1 (single isomer, unassigned) [Compound 122*]	100 to 500 nM
COC(=O)c1cc(C(=O)Nc2nnc(-c3ccccc3Cl)s2)on1 [Compound 1, Methyl 5-((5-(2-chlorophenyl)-1,3,4-thiadiazol-2-yl)carbamoyl)isoxazole-3-carboxylate]	100 to 500 nM
O=C(O)c1cc(C(=O)Nc2nnc(-c3ccccc3Cl)s2)on1 [Compound 2, 5-((5-(2-chlorophenyl)-1,3,4-thiadiazol-2-yl)carbamoyl)isoxazole-3-carboxylic acid]	< 100 nM
CC(C)(C)OC(=O)Nc1cc(C(=O)Nc2nnc(-c3ccccc3Cl)s2)on1 [Compound 3, tert-butyl (5-((5-(2-chlorophenyl)-1,3,4-thiadiazol-2-yl)carbamoyl)isoxazol-3-yl)carbamate]	100 to 500 nM
Nc1cc(C(=O)Nc2nnc(-c3ccccc3Cl)s2)on1 [Compound 4, 3-amino-N-(5-(2-chlorophenyl)-1,3,4-thiadiazol-2-yl)isoxazole-5-carboxamide]	< 100 nM
CC(=O)Nc1cc(C(=O)Nc2nnc(-c3ccccc3Cl)s2)on1 [Compound 5, 3-acetamido-N-(5-(2-chlorophenyl)-1,3,4-thiadiazol-2-yl)isoxazole-5-carboxamide]	100 to 500 nM
O=C(Nc1nnc(-c2ccccc2Cl)s1)c1ccno1 [Compound 6, N-(5-(2-chlorophenyl)-1,3,4-thiadiazol-2-yl)isoxazole-5-carboxamide]	100 to 500 nM
O=C(Nc1nnc(-c2ccccc2Cl)s1)c1onc2c1ccc1cccnc12 [Compound 7, N-(5-(2-chlorophenyl)-1,3,4-thiadiazol-2-yl)isoxazolo[4,3-h]quinoline-3-carboxamide]	< 100 nM
O=C(Nc1nnc(-c2c(F)cccc2F)s1)c1onc2c1ccc1cccnc12 [Compound 8, N-(5-(2,6-difluorophenyl)-1,3,4-thiadiazol-2-yl)isoxazolo[4,3-h]quinoline-3-carboxamide]	100 to 500 nM
N#Cc1nnc(NC(=O)c2onc3c2ccc2cccnc23)s1 [Compound 9, N-(5-cyano-1,3,4-thiadiazol-2-yl)isoxazolo[4,3-h]quinoline-3-carboxamide]	100 to 500 nM
O=C(Nc1nnc(-c2ccccn2)s1)c1onc2c1ccc1cccnc12 [Compound 10, N-(5-(pyridin-2-yl)-1,3,4-thiadiazol-2-yl)isoxazolo[4,3-h]quinoline-3-carboxamide]	100 to 500 nM
CSc1nsc(NC(=O)c2onc3c2ccc2cccnc23)n1 [Compound 11, N-(3-(methylthio)-1,2,4-thiadiazol-5-yl)isoxazolo[4,3-h]quinoline-3-carboxamide]	100 to 500 nM
O=C(Nc1nnc(C(F)(F)F)s1)c1onc2c1ccc1cccnc12 [Compound 12, N-(5-(trifluoromethyl)-1,3,4-thiadiazol-2-yl)isoxazolo[4,3-h]quinoline-3-carboxamide]	100 to 500 nM
O=C(Nc1nncs1)c1onc2c1ccc1cccnc12 [Compound 13, N-(1,3,4-thiadiazol-2-yl)isoxazolo[4,3-h]quinoline-3-carboxamide]	500 to 1000 nM
CN(C)c1nnc(NC(=O)c2onc3c2ccc2cccnc23)s1 [Compound 14, N-(5-(dimethylamino)-1,3,4-thiadiazol-2-yl)isoxazolo[4,3-h]quinoline-3-carboxamide]	≥ 1000 nM
COC(=O)c1cc(C(=O)Nc2nnc(SC)s2)on1 [Compound 15, methyl 5-((5-(methylthio)-1,3,4-thiadiazol-2-yl)carbamoyl)isoxazole-3-carboxylate]	500 to 1000 nM
CSc1nnc(NC(=O)c2cc(C(=O)O)no2)s1 [Compound 16, 5-((5-(methylthio)-1,3,4-thiadiazol-2-yl)carbamoyl)isoxazole-3-carboxylic acid]	100 to 500 nM
CSc1nnc(NC(=O)c2cc(C3CC3)no2)s1 [Compound 17, 3-cyclopropyl-N-(5-(methylthio)-1,3,4-thiadiazol-2-yl)isoxazole-5-carboxamide]	500 to 1000 nM
O=C(Nc1nnc(C(F)F)s1)c1onc2ccccc12 [Compound 18, N-(5-(difluoromethyl)-1,3,4-thiadiazol-2-yl)benzo[c]isoxazole-3-carboxamide]	≥ 1000 nM

Compound	IC50
O=C(Nc1nnc(-c2ccccc2)s1)c1onc2ccccc12 [Compound 19, N-(5-phenyl-1,3,4-thiadiazol-2-yl)benzo[c]isoxazole-3-carboxamide]	≥ 1000 nM
CCCc1nnc(NC(=O)c2onc3ccccc23)s1 [Compound 20, N-(5-propyl-1,3,4-thiadiazol-2-yl)benzo[c]isoxazole-3-carboxamide]	≥ 1000 nM
O=C(Nc1nnc(-c2ccccn2)s1)c1onc2ccccc12 [Compound 21, N-(5-(pyridin-2-yl)-1,3,4-thiadiazol-2-yl)benzo[c]isoxazole-3-carboxamide]	500 to 1000 nM
O=C(Nc1nnc(-c2ccccc2Cl)s1)c1onc2ccccc12 [Compound 22, N-(5-(2-chlorophenyl)-1,3,4-thiadiazol-2-yl)benzo[c]isoxazole-3-carboxamide]	100 to 500 nM
O=C(Nc1nnc(-c2cccc(Cl)c2)s1)c1onc2ccccc12 [Compound 23, N-(5-(3-chlorophenyl)-1,3,4-thiadiazol-2-yl)benzo[c]isoxazole-3-carboxamide]	≥ 1000 nM
COc1ccccc1-c1nnc(NC(=O)c2onc3ccccc23)s1 [Compound 24, N-(5-(2-methoxyphenyl)-1,3,4-thiadiazol-2-yl)benzo[c]isoxazole-3-carboxamide]	500 to 1000 nM
O=C(Nc1nnc(-c2cccc(F)c2)s1)c1onc2ccccc12 [Compound 25, N-(5-(3-fluorophenyl)-1,3,4-thiadiazol-2-yl)benzo[c]isoxazole-3-carboxamide]	≥ 1000 nM
O=C(Nc1nnc(-c2ccccc2F)s1)c1onc2ccccc12 [Compound 26, N-(5-(2-fluorophenyl)-1,3,4-thiadiazol-2-yl)benzo[c]isoxazole-3-carboxamide]	100 to 500 nM
Cc1ccccc1-c1nnc(NC(=O)c2onc3ccccc23)s1 [Compound 27, N-(5-(o-tolyl)-1,3,4-thiadiazol-2-yl)benzo[c]isoxazole-3-carboxamide]	500 to 1000 nM
Cc1cccc(-c2nnc(NC(=O)c3onc4ccccc34)s2)c1 [Compound 28, N-(5-(m-tolyl)-1,3,4-thiadiazol-2-yl)benzo[c]isoxazole-3-carboxamide]	≥ 1000 nM
Cc1ccc(-c2nnc(NC(=O)c3onc4ccccc34)s2)cc1 [Compound 29, N-(5-(p-tolyl)-1,3,4-thiadiazol-2-yl)benzo[c]isoxazole-3-carboxamide]	≥ 1000 nM
O=C(Nc1nnc(-c2cccc(O)c2)s1)c1onc2ccccc12 [Compound 30, N-(5-(3-hydroxyphenyl)-1,3,4-thiadiazol-2-yl)benzo[c]isoxazole-3-carboxamide]	≥ 1000 nM
COc1cc(C(=O)Nc2nnc(-c3ccccc3Cl)s2)on1 [Compound 31, N-(5-(2-chlorophenyl)-1,3,4-thiadiazol-2-yl)-3-methoxyisoxazole-5-carboxamide]	100 to 500 nM
NC(=O)c1cc(C(=O)Nc2nnc(-c3ccccc3Cl)s2)on1 [Compound 32, N5-(5-(2-chlorophenyl)-1,3,4-thiadiazol-2-yl)isoxazole-3,5-dicarboxamide]	100 to 500 nM
CCc1cc(C(=O)Nc2nnc(-c3ccccc3Cl)s2)on1 [Compound 33, N-(5-(2-chlorophenyl)-1,3,4-thiadiazol-2-yl)-3-ethylisoxazole-5-carboxamide]	100 to 500 nM
O=C(Nc1nnc(-c2ccccc2Cl)s1)c1cc(C(F)(F)F)no1 [Compound 34, N-(5-(2-chlorophenyl)-1,3,4-thiadiazol-2-yl)-3-(trifluoromethyl)isoxazole-5-carboxamide]	500 to 1000 nM
O=C(Nc1nnc(-c2ccccc2Cl)s1)c1cc(C(F)F)no1 [Compound 35, N-(5-(2-chlorophenyl)-1,3,4-thiadiazol-2-yl)-3-(difluoromethyl)isoxazole-5-carboxamide]	500 to 1000 nM
Cc1cc(C(=O)Nc2nnc(-c3ccccc3Cl)s2)on1 [Compound 36, N-(5-(2-chlorophenyl)-1,3,4-thiadiazol-2-yl)-3-methylisoxazole-5-carboxamide]	100 to 500 nM
N#Cc1cc(C(=O)Nc2nnc(-c3ccccc3Cl)s2)on1 [Compound 37, N-(5-(2-chlorophenyl)-1,3,4-thiadiazol-2-yl)-3-cyanoisoxazole-5-carboxamide]	< 100 nM
O=C(Nc1nnc(-c2ccccc2Cl)s1)c1cc(C2CCOCC2)no1 [Compound 38, N-(5-(2-chlorophenyl)-1,3,4-thiadiazol-2-yl)-3-(tetrahydro-2H-pyran-4-yl)isoxazole-5-carboxamide]	100 to 500 nM
O=C(Nc1nnc(-c2ccccc2Cl)s1)c1cc(C2CC2)no1 [Compound 39, N-(5-(2-chlorophenyl)-1,3,4-thiadiazol-2-yl)-3-cyclopropylisoxazole-5-carboxamide]	100 to 500 nM
